# Values quoted from earlier work, collected in patent US20200129574A1 (priority 2018, published 2020).
# Legend:
# prostate cancer cells = conditions: in vitro
# [1] = system: several tumor cell types, including prostate cancer cell lines, and primary prostate tumor lines; conditions: several tumor cell types incl. prostate cancer cell lines and primary prostate tumor lines
substance,measurement,setting,value
Vitamin D,effect on invasion of prostate cancer cells,prostate cancer cells,decrease invasion
same,effect on proliferation and differentiation of tumor cells,[1],inhibit proliferation and promote differentiation
same,expression of a6 and 134 integrins,a6 and 134 integrins,decreased expression
